Laboratory results as given in ChEMBL document CHEMBL1136571, “Design, synthesis and structure-activity relationships of benzoxazinone-based factor Xa inhibitors” (Bioorg Med Chem Lett, 2003).

Experiments:
[1] = target: T1, Anionic trypsin-2 (Rattus norvegicus, UniProt P00763); experiment: Inhibitory concentration against trypsin
T1 sequence (P00763 whole entry): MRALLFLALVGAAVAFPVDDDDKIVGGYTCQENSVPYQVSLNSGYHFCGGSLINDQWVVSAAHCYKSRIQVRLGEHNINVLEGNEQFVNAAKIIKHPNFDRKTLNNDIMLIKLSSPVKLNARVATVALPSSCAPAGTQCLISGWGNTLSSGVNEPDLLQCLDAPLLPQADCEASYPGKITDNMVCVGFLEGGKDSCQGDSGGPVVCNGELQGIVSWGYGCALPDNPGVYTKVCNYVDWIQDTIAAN

[2] = target: T2, Prothrombin (Homo sapiens, UniProt P00734)
[3] = target: Coagulation factor X (Homo sapiens, UniProt P00742); experiment: Inhibitory concentration to factor Xa
[4] = target: T2, Prothrombin; experiment: Inhibitory concentration against factor IIa
[5] = test system: Oryctolagus cuniculus; experiment: Percent inhibition of thrombosis at the dose of 50 ug/kg in rabbit deep vein thrombosis model; type: functional
[6] = Half-life period in rats following intravenous administration at 2 mg/kg; type: ADME, organism-based; parameters: dose 2 mg/kg, route intravenous; conditions: rat, in vivo
[7] = Half-life period in rabbits following intravenous administration at 2 mg/kg; type: ADME, organism-based, Oryctolagus cuniculus; parameters: dose 2 mg/kg, route intravenous; conditions: rabbit, in vivo
[8] = test system: Oryctolagus cuniculus; experiment: Percent inhibition of thrombosis at the dose of 100 ug/kg in rabbit deep vein thrombosis model; type: functional
[9] = Bioavailability in rat at an oral dose of 2 mg/kg; type: ADME, organism-based; conditions: in vivo
[10] = test system: Oryctolagus cuniculus; experiment: Plasma concentration at the dose of 100 ug/kg in rabbit; type: functional, organism-based
[11] = test system: Oryctolagus cuniculus; experiment: Percent inhibition of thrombosis at the dose of 25 ug/kg in rabbit deep vein thrombosis model; type: functional; conditions: at 25 µg/kg

Sequence of Coagulation factor X (P00742 41-179 limits assumed): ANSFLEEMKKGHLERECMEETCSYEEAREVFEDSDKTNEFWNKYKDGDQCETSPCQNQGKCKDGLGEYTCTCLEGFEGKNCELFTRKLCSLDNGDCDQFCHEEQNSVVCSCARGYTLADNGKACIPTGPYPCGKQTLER
Sequence of Coagulation factor X (P00742 235-488 limits assumed): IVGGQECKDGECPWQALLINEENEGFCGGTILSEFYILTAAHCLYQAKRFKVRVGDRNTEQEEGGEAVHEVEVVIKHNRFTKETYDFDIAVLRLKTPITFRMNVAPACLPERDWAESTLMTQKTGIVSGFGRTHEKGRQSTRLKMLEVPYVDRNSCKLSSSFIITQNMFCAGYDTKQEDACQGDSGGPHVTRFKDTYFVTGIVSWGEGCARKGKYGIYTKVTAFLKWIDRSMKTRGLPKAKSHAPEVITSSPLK

SMILES | IC50 [1] [nM] | IC50 [2] [nM] | IC50 [3] [nM] | other results
CCOC(=O)CS(=O)(=O)N(Cc1ccc2ccc(C(=N)N)cc2c1)c1ccc(OC2CCN(C(C)=N)CC2)cc1 | 83 |  | 6 | 
CC(=N)N1CCC(Oc2ccc(N(Cc3ccccc3-c3cccc(C(=N)N)c3)S(C)(=O)=O)cc2)CC1 | > 10000 | > 10000 | 7000 | 
CC(=N)N1CCC(Oc2ccc(N(Cc3ccc(-c4cccc(C(=N)N)c4)cc3)S(C)(=O)=O)cc2)CC1 | 769 | > 10000 |  | 
CC(=N)N1CCC(Oc2ccc(N(Cc3cc4cc(C(=N)N)ccc4n3C)S(C)(=O)=O)cc2)CC1 | 167 | > 10000 | 31 | 
CS(=O)(=O)N(Cc1ccc2ccc(C(=N)N)cc2c1)c1ccc(-c2ccccc2S(N)(=O)=O)cc1 |  |  | 153 | 
CC(=N)N1CCC(Oc2ccc3c(c2)OCC(=O)N3Cc2cccc(-c3cccc(C(=N)N)c3)c2)CC1 | 143 | > 10000 |  | 
CC(=N)N1CCC(Oc2ccc3c(c2)OCC(=O)N3Cc2ccc3ccc(C(=N)N)cc3c2)CC1 | 28 |  |  | IC50 [4]: > 10000 nM; inhibition in vivo at 0.05 mg/kg [5]: 44%; half-life [6]: 30 min; half-life [7]: 54 min; inhibition in vivo at 0.1 mg/kg [8]: 99%; bioavailability [9]: 4.6%; Concentration [10]: 200 nM; inhibition in vivo at 0.025 mg/kg [11]: 7%
CC(=N)N1CCC(Oc2ccc(N(Cc3cc(-c4cccc(C(=N)N)c4)no3)S(C)(=O)=O)cc2)CC1 | > 10000 | > 10000 | 14 | 
Cc1cc(CN(c2ccc(-c3ccccc3S(N)(=O)=O)cc2)S(C)(=O)=O)n(-c2cccc(C(=N)N)c2)n1 |  |  | 500 | 
CC(=N)N1CCC(Oc2ccc3c(c2)OCC(=O)N3Cc2cc(-c3cccc(C(=N)N)c3)no2)CC1 | 250000 | > 10000 |  | 
CCOC(=O)CS(=O)(=O)N(Cc1cccc(-c2cccc(C(=N)N)c2)c1)c1ccc(OC2CCN(C(C)=N)CC2)cc1 | 292 |  | 7 | 
CC(=N)N1CCC(Oc2ccc(N(Cc3cc(C)n(-c4cccc(C(=N)N)c4)n3)S(C)(=O)=O)cc2)CC1 | 2110 | > 10000 |  | 
CC(=N)N1CCC(Oc2ccc(N(Cc3ccc4ccc(C(=N)N)cc4c3)S(C)(=O)=O)cc2)CC1 | 94 | > 10000 | 6 | 
CC(=N)N1CCC(Oc2ccc(N(Cc3cccc(-c4cccc(C(=N)N)c4)c3)S(=O)(=O)CC(=O)O)cc2)CC1 | 269 |  | 3 | 
CC(=N)N1CCC(Oc2ccc(N(Cc3ccccc3-c3ccc(C(=N)N)cc3)S(C)(=O)=O)cc2)CC1 | > 10000 | > 10000 | > 10000 | 
Cc1cc(CN(c2ccc(-c3ccccc3S(N)(=O)=O)cc2)S(C)(=O)=O)nn1-c1cccc(C(=N)N)c1 |  |  | 3930 | 
CC(=N)N1CCN(C(=O)c2ccc(N(Cc3ccc4ccc(C(=N)N)cc4c3)S(C)(=O)=O)cc2)CC1 |  |  | 1570 | 
CCOC(=O)CS(=O)(=O)N(Cc1cc2cc(C(=N)N)ccc2s1)c1ccc(OC2CCN(C(C)=N)CC2)cc1 | 86 |  |  | 

Second part, led by results:

IC50 [1] [nM] | IC50 [2] [nM] | IC50 [3] [nM] | SMILES | other results
360 | > 10000 |  | CC(=N)N1CCC(Oc2ccc(N(Cc3cccc(-c4cccc(C(=N)N)c4)c3)S(C)(=O)=O)cc2)CC1 | 
76 |  |  | CC(=N)N1CCC(Oc2ccc3c(c2)OCC(=O)N3Cc2cc3ccc(C(=N)N)cc3n2C)CC1 | 
58 |  | 2 | CCn1c(CN2C(=O)COc3cc(OC4CCN(C(C)=N)CC4)ccc32)cc2ccc(C(=N)N)cc21 | 
> 10000 | > 10000 |  | CC(=N)N1CCC(Oc2ccc(N(Cc3cc(C)nn3-c3cccc(C(=N)N)c3)S(C)(=O)=O)cc2)CC1 | 
63 |  | 3 | CC(=N)N1CCC(Oc2ccc(N(Cc3cc4cc(C(=N)N)ccc4s3)S(=O)(=O)CC(=O)O)cc2)CC1 | 
63 |  |  | CC(=N)N1CCC(Oc2ccc(N(Cc3ccc4ccc(C(=N)N)cc4c3)S(=O)(=O)CC(=O)O)cc2)CC1 [YM-60828] | 
 |  | 191 | CS(=O)(=O)N(Cc1cccc(-c2cccc(C(=N)N)c2)c1)c1ccc(-c2ccccc2S(N)(=O)=O)cc1 | 
25 | > 10000 | 0.8 | CC(=N)N1CCC(Oc2ccc(N(Cc3cc4ccc(C(=N)N)cc4n3C)S(C)(=O)=O)cc2)CC1 | 
21 | > 10000 |  | CC(=N)N1CCC(Oc2ccc(N(Cc3cc4cc(C(=N)N)ccc4s3)S(C)(=O)=O)cc2)CC1 | 
